# Columns and labels:
# [1] = system: cg0310 (katA, catalase) mRNA; experiment: Microarray gene expression depending on furfural concentration; format: cell-based, Corynebacterium glutamicum; conditions: against wild type in medium not containing furfural
# Excerpt: (§1) DNA Microarray is used as a method for analyzing gene expression depending on the furfural stress.
# (§2) Specifically, among genes corresponding to the module classified at http://www.coryneregnet.de/ of entire genes, and genes, whose corresponding protein names contain at least one of transport, permease and pump, genes showing increased expression level at all furfural concentrations are selected, and then, genes showing about 10 folds or more increased expression level at least one concentration are selected. And, among the selected genes, existing genes, which are known to response to stress, are excluded by literature search, and cg0310 (SEQ ID No.: 3), cg1661 (SEQ ID No.: 1), cg3374 (SEQ ID No.: 4) and cg3399 (SEQ ID No.: 5) are selected as the target gene. These are catalase, efflux pump in the cell membrane, oxidoreductase and permease-type genes. Then, information of the target genes selected by microarray, and expression levels of the target genes depending on the furfural concentration in the medium, which are obtained by analyzing gene expression pattern thereof using microarray, are shown in the following Table 2.
# (§3) The gene expression levels of the above Table 2 show the relative mRNA expression levels of the target genes of the wild type strain grown in the medium containing the furfural, against the wild type strain grown without stress in the medium not containing the furfural. As a result of analysis, compared with the medium not containing the furfural, the mRNA expression levels of each target gene are increased in the medium containing the furfural, and the mRNA expression levels of the target genes are further increased as the furfural concentration is increased.
# [2] = system: cg1661 (Arsenite efflux pump ACR3 or related permease) mRNA; experiment: as above; format: cell-based, Corynebacterium glutamicum; conditions: against wild type in medium not containing furfural
# Excerpt: as §1, §2, §3
# [3] = system: cg3374 (cye1, Putative NADH-dependent flavin oxidoreductase) mRNA; experiment: as above; format: cell-based, Corynebacterium glutamicum; conditions: against wild type in medium not containing furfural
# Excerpt: as §1, §2, §3
# [4] = system: cg3399 (Permease of the major facilitator superfamily) mRNA; experiment: as above; format: cell-based, Corynebacterium glutamicum; conditions: against wild type in medium not containing furfural
# Excerpt: as §1, §2, §3
# [5] = system: Corynebacterium glutamicum ATCC 13032; experiment: Growth inhibitory effect of furfural in wild type strain; format: cell-based
# Protocol: In order to develop a furfural-resistant strain, first of all, Corynebacterium glutamicum is selected as a wild type, and then, growth inhibitory effect of furfural at Corynebacterium glutamicum wild type strain (wild type), which is Corynebacterium glutamicum ATCC 13032, depending on concentration, and concentrations of furfural and furfuryl alcohol in a culture solution depending on cell growth are confirmed.
# Specifically, as the culture solution, 2% glucose as a carbon source is added to a minimal medium, CGXII medium, and furfural of 6.5 mM, 13 mM and 20 mM are added thereto, respectively, to compare growth speed with the case not adding the furfural. At this time, the composition of the CGXII medium is 20 g/L (NH4)2504, 5 g/L Urea, 1 g/L KH2PO4, 1 g/L K2HPO4, 0.25 g/L MgSO4.7H2O, 42 g/L MOPS, 10 mg/L CaCl2, 0.2 mg/L Biotin, 0.03 g/L Protecatechuic acid, Trace metal (10 mg/L FeSO4.7H2O, 10 mg/L MnSO4.H2O, 1 mg/L ZnSO4.7H2O, 0.2 mg/L CuSO4.7H2O, 0.02 mg/L NiCl2.6H2O). Culture is conducted at 30° C. after inoculating the cells (initial OD600=1) into the culture solution 50 mL in a 250 mL Erlenmeyer flask.
# [6] = system: cg1310 (rolM, Maleylacetate reductase) mRNA; experiment: Microarray gene expression depending on furfural concentration; format: cell-based, Corynebacterium glutamicum; conditions: against wild type in medium not containing furfural
# Excerpt: As a result, among the genes, which are expected to have similarity, cg1310 (SEQ ID No.: 2) showing increased expression at microarray is selected as the target gene. And, information about the selected target gene, and expression level of the target gene depending on the furfural concentration in the medium, which is obtained by analyzing gene expression pattern thereof depending on the furfural concentration using microarray, are shown in the following Table 1.
# As a result of analysis, compared with the medium not containing the furfural, the mRNA expression level of the target gene is increased in the medium containing the furfural, and the mRNA expression level of the target gene is further increased when the furfural concentration is increased from 6.5 mM to 13 mM.
# as §1
# [7] = Furfural Conc. in Medium: 6.5 mM
# [8] = Furfural Conc. in Medium: 13 mM
# [9] = Furfural Conc. in Medium: 20 mM
smiles,measurement,setting,value
O=Cc1ccco1 [furfural],Gene Expression Level (relative mRNA) cg0310,[1]; [7],3.219
same,Gene Expression Level (relative mRNA) cg0310,[1]; [8],3.443
same,Gene Expression Level (relative mRNA) cg0310,[1]; [9],10.956
same,Gene Expression Level (relative mRNA) cg1661,[2]; [7],7.240
same,Gene Expression Level (relative mRNA) cg1661,[2]; [8],3.071
same,Gene Expression Level (relative mRNA) cg1661,[2]; [9],13.186
same,Gene Expression Level (relative mRNA) cg3374,[3]; [7],1.461
same,Gene Expression Level (relative mRNA) cg3374,[3]; [8],3.219
same,Gene Expression Level (relative mRNA) cg3374,[3]; [9],29.016
same,Gene Expression Level (relative mRNA) cg3399,[4]; [7],4.485
same,Gene Expression Level (relative mRNA) cg3399,[4]; [8],6.529
same,Gene Expression Level (relative mRNA) cg3399,[4]; [9],15.694
same,growth reduction compared with the medium not containing the furfural,"[5]; 6.5 mM furfural, CGXII medium with 2% glucose, 30° C.",≥ 50%
same,growth speed of the strain,"[5]; furfural 6.5, 13 and 20 mM in CGXII medium",becomes slow as the furfural concentration in the medium is increased
same,Gene Expression Level (relative mRNA) cg1310,[6]; [7],1.476
same,Gene Expression Level (relative mRNA) cg1310,[6]; [8],2.872
same,Gene Expression Level (relative mRNA) cg1310,[6]; [9],2.183

# Source: patent US20150275187A1, “FURFURAL-RESISTANT GENE AND FURFURAL-RESISTANT STRAINS COMPRISING THE SAME” (KOREA INSTITUTE OF SCIENCE AND TECHNOLOGY, priority 2014, published 2015)
